Source: patent publication US20120252748A1, “METHODS AND COMPOSITIONS FOR DETERMINING THE RESPONSIVENESS OF CANCER THERAPEUTICS” (New York University, priority 2011, published 2012)
Entries after “also recorded” stand apart in the source; their conditions may differ. Like-named read-outs stand apart in the source and are kept apart here.

Legend:
[1] = test system: MCF-7 cells forced to express ACSL4; experiment: Tamoxifen sensitivity of MCF-7 cells forced to express ACSL4; format: cell-based, human; conditions: forced ACSL4 expression in MCF-7, FIG. 16
Protocol: (§1) An analysis was performed on breast cancer cell lines that are hormone receptor positive and positive for ACSL4 expression. […] In the present study, estrogen responsive MCF-7 cells, which are ACSL4-negative, were forced to express […]. […] The results were confirmed using conditional and stable transfection techniques.

ACSL3 = ACSL3 (Rattus norvegicus, UniProt Q63151); conditions: Van Horn et al. 2005; cited from earlier work
Chain of ACSL3 (Q63151 whole entry): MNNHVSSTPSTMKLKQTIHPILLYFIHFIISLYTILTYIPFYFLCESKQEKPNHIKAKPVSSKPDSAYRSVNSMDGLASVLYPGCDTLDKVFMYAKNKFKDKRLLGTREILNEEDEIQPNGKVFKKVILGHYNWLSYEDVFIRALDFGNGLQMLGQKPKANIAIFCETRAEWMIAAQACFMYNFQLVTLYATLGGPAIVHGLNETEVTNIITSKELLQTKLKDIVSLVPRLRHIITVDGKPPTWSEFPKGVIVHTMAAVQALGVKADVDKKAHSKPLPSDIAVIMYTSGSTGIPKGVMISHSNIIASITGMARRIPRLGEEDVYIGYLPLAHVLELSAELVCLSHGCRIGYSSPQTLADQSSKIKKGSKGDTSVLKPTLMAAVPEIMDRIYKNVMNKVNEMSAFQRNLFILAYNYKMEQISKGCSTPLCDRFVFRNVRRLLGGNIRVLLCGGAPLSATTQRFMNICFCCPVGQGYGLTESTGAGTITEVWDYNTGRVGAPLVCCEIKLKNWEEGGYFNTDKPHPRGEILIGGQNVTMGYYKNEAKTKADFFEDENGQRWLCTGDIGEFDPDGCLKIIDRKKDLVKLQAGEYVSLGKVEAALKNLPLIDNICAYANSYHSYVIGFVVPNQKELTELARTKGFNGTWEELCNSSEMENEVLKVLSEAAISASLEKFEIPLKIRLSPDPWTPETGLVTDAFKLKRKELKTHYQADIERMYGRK

ACSL4 = ACSL4 (Rattus norvegicus, UniProt O35547); conditions: cited from earlier work
Chain of ACSL4 (O35547 whole entry): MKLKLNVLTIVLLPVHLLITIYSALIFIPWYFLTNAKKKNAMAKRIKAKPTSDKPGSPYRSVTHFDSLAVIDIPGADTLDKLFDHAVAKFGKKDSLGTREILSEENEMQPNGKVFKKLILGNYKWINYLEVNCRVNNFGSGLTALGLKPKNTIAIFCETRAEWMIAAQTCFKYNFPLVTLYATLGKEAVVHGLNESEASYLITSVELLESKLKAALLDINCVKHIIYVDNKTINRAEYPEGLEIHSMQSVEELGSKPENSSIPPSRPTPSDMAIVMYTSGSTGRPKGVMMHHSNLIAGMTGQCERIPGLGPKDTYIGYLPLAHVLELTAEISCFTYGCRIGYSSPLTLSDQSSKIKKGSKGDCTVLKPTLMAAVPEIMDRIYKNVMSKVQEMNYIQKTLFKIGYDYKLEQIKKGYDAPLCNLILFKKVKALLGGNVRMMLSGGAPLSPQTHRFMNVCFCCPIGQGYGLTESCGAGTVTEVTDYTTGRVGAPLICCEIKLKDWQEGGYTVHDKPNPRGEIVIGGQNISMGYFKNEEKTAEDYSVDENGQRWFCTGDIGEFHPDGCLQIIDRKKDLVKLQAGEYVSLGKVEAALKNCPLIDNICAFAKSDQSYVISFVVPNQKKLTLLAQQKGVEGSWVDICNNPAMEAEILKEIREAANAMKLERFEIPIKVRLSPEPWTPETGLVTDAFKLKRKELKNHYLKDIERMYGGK

ACSL1 = biological target: T1, ACSL1 (Rattus norvegicus, UniProt P18163); conditions: cited from earlier work
T1 sequence (P18163 1-699): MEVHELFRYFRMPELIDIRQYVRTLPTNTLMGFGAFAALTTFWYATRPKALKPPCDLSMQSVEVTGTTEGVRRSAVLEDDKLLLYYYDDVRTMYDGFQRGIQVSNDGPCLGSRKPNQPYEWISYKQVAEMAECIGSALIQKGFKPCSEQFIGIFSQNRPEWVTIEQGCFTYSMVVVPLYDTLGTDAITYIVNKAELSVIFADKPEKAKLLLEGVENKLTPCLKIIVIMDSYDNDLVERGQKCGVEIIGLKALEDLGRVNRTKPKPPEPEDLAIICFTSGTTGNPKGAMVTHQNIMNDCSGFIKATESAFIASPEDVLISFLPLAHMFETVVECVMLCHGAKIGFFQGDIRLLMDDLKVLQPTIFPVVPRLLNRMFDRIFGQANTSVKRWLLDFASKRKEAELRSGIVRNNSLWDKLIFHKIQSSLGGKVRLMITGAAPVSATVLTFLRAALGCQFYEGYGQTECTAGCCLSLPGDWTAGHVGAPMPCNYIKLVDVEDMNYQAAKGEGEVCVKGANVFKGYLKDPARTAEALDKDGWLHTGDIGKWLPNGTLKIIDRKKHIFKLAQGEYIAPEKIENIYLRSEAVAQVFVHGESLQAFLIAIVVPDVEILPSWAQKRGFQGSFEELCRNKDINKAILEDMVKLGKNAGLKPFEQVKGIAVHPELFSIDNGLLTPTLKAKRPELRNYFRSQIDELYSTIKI

ACSL5 = biological target: T2, ACSL5 (Rattus norvegicus, UniProt O88813); conditions: Van Horn et al. 2005; cited from earlier work
T2 sequence (O88813 1-683): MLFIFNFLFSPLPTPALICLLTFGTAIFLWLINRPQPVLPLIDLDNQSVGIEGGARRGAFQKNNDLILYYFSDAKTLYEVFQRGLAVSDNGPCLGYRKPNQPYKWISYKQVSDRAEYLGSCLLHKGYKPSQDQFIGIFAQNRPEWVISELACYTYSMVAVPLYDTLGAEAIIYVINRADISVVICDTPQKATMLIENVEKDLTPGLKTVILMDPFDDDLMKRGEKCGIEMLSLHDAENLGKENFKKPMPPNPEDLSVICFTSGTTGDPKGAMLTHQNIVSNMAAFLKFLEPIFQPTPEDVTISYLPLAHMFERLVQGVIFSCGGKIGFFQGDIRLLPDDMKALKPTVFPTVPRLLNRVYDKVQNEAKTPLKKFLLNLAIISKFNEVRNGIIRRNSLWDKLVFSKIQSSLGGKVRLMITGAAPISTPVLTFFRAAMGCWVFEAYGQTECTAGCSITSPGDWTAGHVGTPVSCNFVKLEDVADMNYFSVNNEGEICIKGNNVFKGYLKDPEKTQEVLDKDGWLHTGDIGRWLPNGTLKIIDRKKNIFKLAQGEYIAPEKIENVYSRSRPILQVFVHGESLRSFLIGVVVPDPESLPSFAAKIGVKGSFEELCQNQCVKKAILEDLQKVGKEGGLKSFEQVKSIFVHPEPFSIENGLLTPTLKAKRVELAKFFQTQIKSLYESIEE

ACSL6 = conditions: Van Horn et al. 2005; cited from earlier work
MDA-MB-231 cells = experiment: Effect of triacsin C on relative cell number of MDA-MB-231 control and ACSL4 knockdown cells; format: cell-based, human; conditions: for IC50: FIG. 7C, read-out: half-maximal inhibitory concentration
Protocol: Relative differences in cell number were quantitated using the Cell Titer 96 AQueous Reagent purchased from Promega (Madison, Wis.). Protocols used were as described by the manufacturer.
MDA-MB-231 cells were treated for 48 hours with either a control or ACSL4-specific siRNA. The siRNA was a SmartPool siRNA obtained from Dharmacon, consisting of 4 separate siRNAs.
Next, the effect of triacsin C treatment on MDA-MB-231 control and knockdown cells were compared. […] Mashima et al., Cancer Sci., 100: 1556-1562 (2009).

[2] = test system: a variety of cancer cells; conditions: Mashima et al. 2009; cited from earlier work
[3] = test system: MCF-7 cells genetically manipulated to express ACSL4; experiment: Growth response to estrogen, MCF-7 cells genetically manipulated to express ACSL4; format: cell-based, human; conditions: MCF-7 expressing ACSL4, versus estrogen-free conditions, FIG. 6B
Protocol: (§2) Additionally, a study was performed in which cell growth in the presence of estrogen of the estrogen dependent MCF-7 cells, which are ACSL4 negative, were compared to modified MCF-7 cells, which were induced to express ACSL4.
as §1

MCF-7 cells = experiment: Growth response to estrogen, MCF-7 cells; format: cell-based, human; conditions: MCF-7 (ER-positive, ACSL4-negative), versus estrogen-free control, FIG. 5, FIG. 6A
Protocol: (§3) As indicated above in the results of Example 2, two cell lines which were ER-positive where also ACSL4-positive. A study comparing cell growth in the presence of estrogen of one of these cell lines (MDA-MB-415) to a cell line which is ER-positive and ACSL4 negative (MCF-7) was performed.
as §2

MDA-MB-415 cells = experiment: Growth response to estrogen, MDA-MB-415 cells; format: cell-based, human; conditions: MDA-MB-415 (ER-positive, ACSL4-positive), versus control without estrogen, FIG. 5
Protocol: as §3

## CC/C(=C(\c1ccccc1)c1ccc(OCCN(C)C)cc1)c1ccccc1 [tamoxifen]
[1]
  sensitivity to tamoxifen treatment: decrease in the sensitivity

## CCC/C=C/C/C=C/C=C/C=N/NN=O [triacsin C]
ACSL3
  inhibition of ACSL3: specific for inhibition
ACSL4; Van Horn et al. 2005
  inhibition of ACSL4: specific for inhibition
ACSL4; ranking among ACSL1, 3 and 4
  relative sensitivity by reported half-maximal inhibitory concentration values: least sensitive
ACSL1; Van Horn et al. 2005
  inhibition of ACSL1: specific for inhibition
ACSL1; ranking among ACSL1, 3 and 4
  relative sensitivity by reported half-maximal inhibitory concentration values: most sensitive
ACSL5
  effect on the activity of ACSL5: little or no effect
ACSL6
  effect on the activity of ACSL6: little or no effect
MDA-MB-231 cells; ACSL4 knockdown versus control MDA-MB-231 cells
  increase in triacsin C sensitivity on ablation of ACSL4: three-fold increase
MDA-MB-231 cells; MDA-MB-231 ACSL4 knockdown cells (ACSL4-siRNA)
  IC50: 0.56 µM
MDA-MB-231 cells; MDA-MB-231 control cells (control siRNA)
  IC50: 1.59 µM
[2]
  apoptosis of cancer cells: induce apoptosis
  proliferation of cancer cells: inhibit proliferation

## estrogen
[3]
  growth response to estrogen: became unresponsive to the proliferative effect; also recorded: loss of responsiveness
MCF-7 cells
  growth response to estrogen: significant growth response; also recorded: proliferative growth effect
MDA-MB-415 cells
  growth response to estrogen: no significant growth response; also recorded: no increase in cellular proliferation
